The results in this text go back to US8119624B2, “Fused phenyl amido heterocyclic compounds” (Pfizer Inc., priority 2006, dated 2012).

By EC50 is commonly meant the concentration needed to bring the measured effect to its halfway point.

For the assay, the target named is T1, Full-length glucokinase (beta cell isoform) (Homo sapiens, UniProt P35557).
T1 construct: Full-length glucokinase (beta cell isoform) was His-tagged at N-terminus; His tag (N); made in house
T1 sequence (P35557 1-465): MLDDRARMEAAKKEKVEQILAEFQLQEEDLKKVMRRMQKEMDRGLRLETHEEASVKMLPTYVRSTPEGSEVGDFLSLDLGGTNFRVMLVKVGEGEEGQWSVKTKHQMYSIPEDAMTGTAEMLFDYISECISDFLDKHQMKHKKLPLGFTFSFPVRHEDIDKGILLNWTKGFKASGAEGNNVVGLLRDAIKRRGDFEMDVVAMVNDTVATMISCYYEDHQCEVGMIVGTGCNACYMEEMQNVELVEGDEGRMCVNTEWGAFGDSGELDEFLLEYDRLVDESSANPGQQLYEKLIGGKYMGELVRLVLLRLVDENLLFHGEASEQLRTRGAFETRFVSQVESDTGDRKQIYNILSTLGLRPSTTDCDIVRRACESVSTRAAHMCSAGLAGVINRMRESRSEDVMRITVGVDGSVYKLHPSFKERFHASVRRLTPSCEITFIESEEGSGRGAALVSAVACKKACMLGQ
The experiment in a line: Glucokinase biochemical assay (PK/LDH-coupled, NADH depletion at 340 nm): % activation, EC50, % max activation. The conditions noted are these: 5 mM glucose; for activation at 10 µM: 10 uM compound, % Activation=(Va/Vo−1)×100, read-out: % Activation at 10 uM; for EC50: GK activation, read-out: EC50; for Emax: fitted maximum activation, read-out: % Max Activation. Summed up: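 Activation expressed as (Va/Vo−1)×100, where initial rates with and without compound come from NADH depletion at 340 nm over 200–900 s. Enzyme is His-tagged human beta-cell GK, full length, run at room temperature in HEPES buffer with 1 mM ATP and 5 mM glucose. DMSO 1%.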

Regarding `Cn1ccc(NC(=O)c2cc(Oc3ccc(C(=O)NC4CCC4)c(F)c3)c3c(c2)OC(C)(C)C3)n1` [Example 74, 4-(4-Cyclobutylcarbamoyl-3-fluoro-phenoxy)-2,2-dimethyl-2,3-dihydro-benzofuran-6-carboxylic acid(1-methyl-1H-pyrazol-3-yl)-amide], the activation at 10 µM amounted to 285%, the EC50 was found to be 0.54 µM and the Emax came out at 258%.
On the same counts, the results for `Cn1ccc(NC(=O)c2cc(Oc3ccc(C(=O)NCCF)c(F)c3)c3c(c2)OC(C)(C)C3)n1` [Example 75, 4-[3-Fluoro-4-(2-fluoro-ethylcarbamoyl)-phenoxy]-2,2-dimethyl-2,3-dihydro-benzofuran-6-carboxylic acid(1-methyl-1H-pyrazol-3-yl)-amide] are 193%, 0.26 µM and 189%.
Taken in the same sequence, the figures for `Cn1ccc(NC(=O)c2cc(Oc3ccc(C(=O)NCC(F)F)c(F)c3)c3c(c2)OC(C)(C)C3)n1` [Example 76, 4-[4-(2,2-Difluoro-ethylcarbamoyl)-3-fluoro-phenoxy]-2,2-dimethyl-2,3-dihydro-benzofuran-6-carboxylic acid(1-methyl-1H-pyrazol-3-yl)-amide] were 203%, 0.47 µM and 206%.
Turning to `CC1(C)Cc2c(OCc3ccccc3)cc(C(=O)Nc3ccc(C(=O)O)cn3)cc2O1` [Example 77, 6-[(4-Benzyloxy-2,2-dimethyl-2,3-dihydro-benzofuran-6-carbonyl)-amino]-nicotinic acid], the activation at 10 µM came out at 64.4%, the EC50 amounted to 0.15 µM and the Emax was 66%.
Turning to `C[C@@H](Cc1ccccc1)Oc1cc(C(=O)Nc2ccn(C)n2)cc2c1CC(C)(C)O2` [Example 78, 2,2-Dimethyl-4-((S)-1-methyl-2-phenyl-ethoxy)-2,3-dihydro-benzofuran-6-carboxylic acid (1-methyl-1H-pyrazol-3-yl)-amide], the activation at 10 µM stood at 139%, the concentration giving a half-maximal response (EC50) came to 1.47 µM and the Emax is 149%.
Taken in the same sequence, the figures for `COc1ccc(CC(C)Oc2cc(C(=O)Nc3ccn(C)n3)cc3c2CC(C)(C)O3)cc1` (stereo not shown) [Example 79, 4-[2-(4-Methoxy-phenyl)-1-methyl-ethoxy]-2,2-dimethyl-2,3-dihydro-benzofuran-6-carboxylic acid (1-methyl-1H-pyrazol-3-yl)-amide] were 148%, 2.1 µM and 171%.
On the same counts, the results for `Cn1ccc(NC(=O)c2cc(OCc3ccccc3)c3c(c2)OC(C)(C)C3)n1` [Example 80, 4-Benzyloxy-2,2-dimethyl-2,3-dihydro-benzofuran-6-carboxylic acid (1-methyl-1H-pyrazol-3-yl)-amide] are 111%, 5.9 µM and 176%.
On the same counts, the results for `CC(Oc1cc(C(=O)Nc2ccn(C)n2)cc2c1CC(C)(C)O2)c1ccccn1` (stereo not shown) [Example 81, 2,2-Dimethyl-4-(1-pyridin-2-yl-ethoxy)-2,3-dihydro-benzofuran-6-carboxylic acid (1-methyl-1H-pyrazol-3-yl)-amide] are 112%, 5.3 µM and 148%.
As for `CC(Oc1cc(C(=O)Nc2ccn(C)n2)cc2c1CC(C)(C)O2)c1cnccn1` (stereo not shown) [Example 82, 2,2-Dimethyl-4-(1-pyrazin-2-yl-ethoxy)-2,3-dihydro-benzofuran-6-carboxylic acid (1-methyl-1H-pyrazol-3-yl)-amide], the activation at 10 µM is 110%, the concentration for a half-maximal effect (EC50) worked out at 5.1 µM and the Emax was 135%.
On to `Cc1nccnc1C(C)Oc1cc(C(=O)Nc2ccn(C)n2)cc2c1CC(C)(C)O2` (stereo not shown) [Example 83, 2,2-Dimethyl-4-[1-(3-methyl-pyrazin-2-yl)-ethoxy]-2,3-dihydro-benzofuran-6-carboxylic acid (1-methyl-1H-pyrazol-3-yl)-amide], for which the activation at 10 µM amounted to 78.3%, the EC50 is 8.2 µM and the Emax was 148%.
As to `COCC(C)Oc1cc(C(=O)Nc2ccn(C)n2)cc2c1CC(C)(C)O2` (stereo not shown) [Example 84, 4-(2-Methoxy-1-methyl-ethoxy)-2,2-dimethyl-2,3-dihydro-benzofuran-6-carboxylic acid (1-methyl-1H-pyrazol-3-yl)-amide], the activation at 10 µM is 58.4% and the EC50 is over 10 µM.
As for `CC(CN1CCOCC1)Oc1cc(C(=O)Nc2ccn(C)n2)cc2c1CC(C)(C)O2` (stereo not shown) [Example 85, 2,2-Dimethyl-4-(1-methyl-2-morpholin-4-yl-ethoxy)-2,3-dihydro-benzofuran-6-carboxylic acid (1-methyl-1H-pyrazol-3-yl)-amide], the activation at 10 µM worked out at 12%.
With `CC(Oc1cc(C(=O)Nc2ccn(C)n2)cc2c1CC(C)(C)O2)c1ccncn1` (stereo not shown) [Example 86, 2,2-Dimethyl-4-(1-pyrimidin-4-yl-ethoxy)-2,3-dihydro-benzofuran-6-carboxylic acid (1-methyl-1H-pyrazol-3-yl)-amide], the activation at 10 µM was determined as 124%, the EC50 worked out at 4.8 µM and the Emax was determined as 159%.
Taken in the same sequence, the figures for `Cc1ccnc(C(C)Oc2cc(C(=O)Nc3ccn(C)n3)cc3c2CC(C)(C)O3)c1` (stereo not shown) [Example 87, 2,2-Dimethyl-4-[1-(4-methyl-pyridin-2-yl)-ethoxy]-2,3-dihydro-benzofuran-6-carboxylic acid (1-methyl-1H-pyrazol-3-yl)-amide] were 73.6%, 8.6 µM and 136%.
Regarding `Cn1ccc(NC(=O)c2cc(OCc3cc(O)nc(-c4cnccn4)n3)c3c(c2)OC(C)(C)C3)n1` [Example 88, 4-(6-Hydroxy-2-pyrazin-2-yl-pyrimidin-4-ylmethoxy)-2,2-dimethyl-2,3-dihydro-benzofuran-6-carboxylic acid (1-methyl-1H-pyrazol-3-yl)-amide], the activation at 10 µM stood at 38.2%.
Consider `Cn1ccc(NC(=O)c2cc(OCC3CC3)c3c(c2)OC(C)(C)C3)n1` [Example 89, 4-Cyclopropylmethoxy-2,2-dimethyl-2,3-dihydro-benzofuran-6-carboxylic acid (1-methyl-1H-pyrazol-3-yl)-amide], for which the activation at 10 µM turned out to be 139%, the EC50 was 3.9 µM and the Emax is 157%.
For `Cc1nc(COc2cc(C(=O)Nc3ccn(C)n3)cc3c2CC(C)(C)O3)cs1` [Example 90, 2,2-Dimethyl-4-(2-methyl-thiazol-4-ylmethoxy)-2,3-dihydro-benzofuran-6-carboxylic acid (1-methyl-1H-pyrazol-3-yl)-amide], the activation at 10 µM was 112%, the EC50 was 5.6 µM and the Emax is 138%.
Taken in the same sequence, the figures for `Cn1ccc(NC(=O)c2cc(OCc3noc(C(C)(C)C)n3)c3c(c2)OC(C)(C)C3)n1` [Example 91, 4-(5-tert-Butyl-[1,2,4]oxadiazol-3-ylmethoxy)-2,2-dimethyl-2,3-dihydro-benzofuran-6-carboxylic acid (1-methyl-1H-pyrazol-3-yl)-amide] were 150%, 3.5 µM and 150%.
Taken in the same sequence, the figures for `CCOc1cc(C(=O)Nc2ccn(C)n2)cc2c1CC(C)(C)O2` [Example 92, 4-Ethoxy-2,2-dimethyl-2,3-dihydro-benzofuran-6-carboxylic acid (1-methyl-1H-pyrazol-3-yl)-amide] were 87%, 9.5 µM and 164%.
Taken in the same sequence, the figures for `Cn1ccc(NC(=O)c2cc(OCCCC#N)c3c(c2)OC(C)(C)C3)n1` [Example 93, 4-(3-Cyano-propoxy)-2,2-dimethyl-2,3-dihydro-benzofuran-6-carboxylic acid (1-methyl-1H-pyrazol-3-yl)-amide] were 95.2%, 9.7 µM and 136%.
For the compound `Cc1noc(COc2cc(C(=O)Nc3ccn(C)n3)cc3c2CC(C)(C)O3)n1` [Example 94, 2,2-Dimethyl-4-(3-methyl-[1,2,4]oxadiazol-5-ylmethoxy)-2,3-dihydro-benzofuran-6-carboxylic acid (1-methyl-1H-pyrazol-3-yl)-amide], the activation at 10 µM was 116%, the EC50 came to 4.4 µM and the Emax was 140%.
Turning to `Cn1ccc(NC(=O)c2cc(OCc3cc(O)nc(C4CC4)n3)c3c(c2)OC(C)(C)C3)n1` [Example 95, 4-(2-Cyclopropyl-6-hydroxy-pyrimidin-4-ylmethoxy)-2,2-dimethyl-2,3-dihydro-benzofuran-6-carboxylic acid (1-methyl-1H-pyrazol-3-yl)-amide], the activation at 10 µM was 143%, the EC50 came to 0.625 µM and the Emax was determined as 145%.
Regarding `Cc1nc(COc2cc(C(=O)Nc3ccn(C)n3)cc3c2CC(C)(C)O3)no1` [Example 96, 2,2-Dimethyl-4-(5-methyl-[1,2,4]oxadiazol-3-ylmethoxy)-2,3-dihydro-benzofuran-6-carboxylic acid (1-methyl-1H-pyrazol-3-yl)-amide], the activation at 10 µM came to 107%, the EC50 was 7.3 µM and the Emax came out at 148%.
